Results: patent US8536168B2 (Novartis AG, priority 2007, dated 2013)
Like-named read-outs stand apart in the source and are kept apart here.

Legend:
[1] = target: mouse Smoothened receptor (Mus musculus, UniProt P56726); test: Smo binding assay, displacement of radio-labeled smoothened agonist, filter binding format (mouse); details: displacement of small molecule agonist of Smoothened, read-out: Mouse Smo bdg., IC50
Description: A Smo binding assay was developed using radio-labeled smoothened agonist for compound competition.

Gli-luciferase activity = test: Reporter gene assay (RGA) in TMHh12 cells, antagonism of Gli-luciferase activity in the presence of a Smo agonist; assay type: cell-based
Description: Activity of the compounds was evaluated using a reporter gene assay (RGA) in TMHh12 cells.

[2] = target: human Smoothened receptor (Homo sapiens, UniProt Q99835); test: Smo binding assay, displacement of radio-labeled smoothened agonist, filter binding format (human); details: displacement of small molecule agonist of Smoothened, read-out: Human Smo bdg., IC50
Description: A Smo binding assay was developed using radio-labeled smoothened agonist for compound competition. Table 9 lists the IC50 for displacement of a small molecule agonist of Smoothened determined in a filter binding format for the mouse and human Smoothened receptor.

[3] = 25 nM small molecule Smo agonist, read-out: RGA (25 nM Smo agonist) IC50
[4] = read-out: RGA (1 nM Smo agonist) IC50, 1 nM small molecule Smo agonist

Sequence of human Smoothened receptor (Q99835 28-787): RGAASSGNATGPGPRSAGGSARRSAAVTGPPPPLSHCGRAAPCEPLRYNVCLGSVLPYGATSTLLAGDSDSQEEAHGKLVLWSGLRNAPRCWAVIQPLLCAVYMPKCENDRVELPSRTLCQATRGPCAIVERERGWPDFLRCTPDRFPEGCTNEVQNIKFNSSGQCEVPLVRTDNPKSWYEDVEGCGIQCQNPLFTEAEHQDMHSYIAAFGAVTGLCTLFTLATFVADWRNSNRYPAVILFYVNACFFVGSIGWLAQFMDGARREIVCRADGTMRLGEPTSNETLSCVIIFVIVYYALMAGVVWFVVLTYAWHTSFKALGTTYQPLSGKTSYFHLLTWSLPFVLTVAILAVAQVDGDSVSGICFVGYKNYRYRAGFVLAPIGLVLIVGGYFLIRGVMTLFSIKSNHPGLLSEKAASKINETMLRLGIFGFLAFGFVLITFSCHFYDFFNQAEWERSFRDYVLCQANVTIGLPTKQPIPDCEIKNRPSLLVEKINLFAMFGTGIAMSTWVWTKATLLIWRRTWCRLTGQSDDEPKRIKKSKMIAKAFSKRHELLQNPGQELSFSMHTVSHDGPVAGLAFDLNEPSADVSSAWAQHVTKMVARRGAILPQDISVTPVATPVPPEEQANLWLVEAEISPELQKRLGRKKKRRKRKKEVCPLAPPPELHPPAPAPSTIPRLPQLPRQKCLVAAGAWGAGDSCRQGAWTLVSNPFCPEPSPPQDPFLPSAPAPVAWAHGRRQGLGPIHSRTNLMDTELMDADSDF
Sequence of mouse Smoothened receptor (P56726 33-793): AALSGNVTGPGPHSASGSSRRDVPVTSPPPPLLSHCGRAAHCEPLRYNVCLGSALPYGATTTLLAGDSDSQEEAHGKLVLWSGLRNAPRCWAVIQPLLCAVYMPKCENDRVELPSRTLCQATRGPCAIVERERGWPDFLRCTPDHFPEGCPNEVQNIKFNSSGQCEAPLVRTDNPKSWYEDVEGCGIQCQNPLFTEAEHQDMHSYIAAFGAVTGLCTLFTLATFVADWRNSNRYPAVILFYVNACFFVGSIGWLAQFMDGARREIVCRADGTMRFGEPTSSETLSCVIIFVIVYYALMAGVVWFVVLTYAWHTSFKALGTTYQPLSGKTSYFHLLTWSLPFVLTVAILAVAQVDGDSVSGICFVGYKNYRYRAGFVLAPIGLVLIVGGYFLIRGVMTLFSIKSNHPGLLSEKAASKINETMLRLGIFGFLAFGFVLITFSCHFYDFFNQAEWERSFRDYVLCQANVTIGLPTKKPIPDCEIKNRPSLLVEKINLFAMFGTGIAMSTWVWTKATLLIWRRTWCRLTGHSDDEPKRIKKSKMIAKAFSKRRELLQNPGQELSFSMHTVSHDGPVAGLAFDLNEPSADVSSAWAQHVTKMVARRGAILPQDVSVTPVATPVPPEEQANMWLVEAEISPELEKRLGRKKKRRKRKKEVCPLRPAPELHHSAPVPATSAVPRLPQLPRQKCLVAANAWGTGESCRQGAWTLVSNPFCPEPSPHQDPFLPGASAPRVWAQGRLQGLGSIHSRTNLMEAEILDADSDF

Row | IC50 [1] [nM] | IC50 (Gli-luciferase activity; [3]) [nM] | IC50 (Gli-luciferase activity; [4]) [nM] | IC50 [2] [nM] | SMILES
1 | < 100 | 1000 to 10000 | < 100 | 100 to 1000 | N#Cc1ccc(N2CCN(c3nnc(Cc4ccccc4)c4ccccc34)CC2)nc1 [Example 1, 6-[4-(4-Benzyl-phthalazin-1-yl)-piperazin-1-yl]-nicotinonitrile]
2 | < 100 | 100 to 1000 | < 100 | < 100 | FC(F)(F)c1ccc(N2CCN(c3nnc(Cc4ccccc4)c4ccccc34)CC2)nc1 [Example 2]
3 | < 100 | 100 to 1000 | < 100 | < 100 | CCOC(=O)c1ccc(N2CCN(c3nnc(Cc4ccccc4)c4ccccc34)CC2)cc1 [Example 5]
4 | 1000 to 10000 | 1000 to 10000 | 1000 to 10000 | 1000 to 10000 | O=C(O)c1ccc(N2CCN(c3nnc(Cc4ccccc4)c4ccccc34)CC2)cc1 [Example 16]
5 | 100 to 1000 | 100 to 1000 | < 100 | 100 to 1000 | N#Cc1cnc(N2CCN(c3nnc(Cc4ccccc4)c4ccccc34)CC2)nc1 [Example 39, 2-[4-(4-Benzyl-phthalazin-1-yl)-piperazin-1-yl]-pyrimidine-5-carbonitrile]
6 | 100 to 1000 | 10000 to 40000 | 1000 to 10000 | 100 to 1000 | COc1cc(=O)[nH]c(N2CCN(c3nnc(Cc4ccccc4)c4ccccc34)CC2)n1 [Example 46]
7 | < 100 | 1000 to 10000 | < 100 | 100 to 1000 | Cc1cc(C)nc(N2CCN(c3nnc(Cc4ccccc4)c4ccccc34)CC2)n1 [Example 48]
8 | 100 to 1000 | 100 to 1000 | < 100 | 100 to 1000 | Fc1cc(Cl)cnc1N1CCN(c2nnc(Cc3ccccc3)c3ccccc23)CC1 [Example 49]
9 | 100 to 1000 | 100 to 1000 | < 100 | 100 to 1000 | FC(F)(F)c1ccnc(N2CCN(c3nnc(Cc4ccccc4)c4ccccc34)CC2)n1 [Example 50]
10 | 1000 to 10000 | 1000 to 10000 | 100 to 1000 | 1000 to 10000 | Fc1cnc(F)c(N2CCN(c3nnc(Cc4ccccc4)c4ccccc34)CC2)c1 [Example 51]
11 | 100 to 1000 | 1000 to 10000 | 100 to 1000 | 100 to 1000 | Fc1cnc(N2CCN(c3nnc(Cc4ccccc4)c4ccccc34)CC2)c(F)c1 [Example 52]
12 | 100 to 1000 | 100 to 1000 | < 100 | 100 to 1000 | NC(=O)c1ccc(N2CCN(c3nnc(Cc4ccccc4)c4ccccc34)CC2)nc1 [Example 53]
13 | < 100 | 100 to 1000 | < 100 | < 100 | CCOC(=O)c1ccc(N2CCN(c3nnc(Cc4ccccc4)c4ccccc34)CC2)nc1 [Example 54]
14 | < 100 | < 100 | < 100 | < 100 | CC(C)(O)c1ccc(N2CCN(c3nnc(Cc4ccccc4)c4ccccc34)CC2)nc1 [Example 54a, 2-{6-[4-(4-Benzyl-phthalazin-1-yl)-piperazin-1-yl]-pyridin-3-yl}-propan-2-ol]
15 | 100 to 1000 | 100 to 1000 | < 100 | 100 to 1000 | CN(C)C(=O)c1cnc(N2CCN(c3nnc(Cc4ccccc4)c4ccccc34)CC2)nc1 [Example 54aa]
16 | < 100 | 100 to 1000 | < 100 | 100 to 1000 | O=C(c1cnc(N2CCN(c3nnc(Cc4ccccc4)c4ccccc34)CC2)nc1)N1CCOCC1 [Example 54bb]
17 | 100 to 1000 | 100 to 1000 | < 100 | 100 to 1000 | CN(CCO)C(=O)c1cnc(N2CCN(c3nnc(Cc4ccccc4)c4ccccc34)CC2)nc1 [Example 54cc]

Row | IC50 [1] [nM] | IC50 (Gli-luciferase activity; [3]) [nM] | IC50 (Gli-luciferase activity; [4]) [nM] | IC50 [2] [nM] | SMILES
18 | < 100 | < 100 | < 100 | < 100 | CCN(CCO)C(=O)c1ccc(N2CCN(c3nnc(Cc4ccccc4)c4ccccc34)CC2)nc1 [Example 54d]
19 | 100 to 1000 | 1000 to 10000 | 100 to 1000 | 1000 to 10000 | CN1CCN(C(=O)c2ccc(N3CCN(c4nnc(Cc5ccccc5)c5ccccc45)CC3)nc2)CC1 [Example 54i]
20 | < 100 | 100 to 1000 | < 100 | 100 to 1000 | O=C(c1ccc(N2CCN(c3nnc(Cc4ccccc4)c4ccccc34)CC2)nc1)N1CCOCC1 [Example 54k]
21 | 100 to 1000 | 100 to 1000 | < 100 | 100 to 1000 | O=C(c1ccc(N2CCN(c3nnc(Cc4ccccc4)c4ccccc34)CC2)nc1)N1CC[S+]([O-])C1 (stereo not shown) [Example 54q]
22 | < 100 | 100 to 1000 | 100 to 1000 | 100 to 1000 | COC(=O)CNC(=O)c1ccc(N2CCN(c3nnc(Cc4ccccc4)c4ccccc34)CC2)nc1 [Example 54r]
23 | < 100 | 100 to 1000 | < 100 | 100 to 1000 | CN(C)C(=O)c1ccc(N2CCN(c3nnc(Cc4ccccc4)c4ccccc34)CC2)nc1 [Example 54s]
24 | < 100 | 100 to 1000 | < 100 | 100 to 1000 | CN(CCCO)C(=O)c1ccc(N2CCN(c3nnc(Cc4ccccc4)c4ccccc34)CC2)nc1 [Example 54t]
25 | < 100 | 100 to 1000 | < 100 | 100 to 1000 | CC(C)(O)CNC(=O)c1ccc(N2CCN(c3nnc(Cc4ccccc4)c4ccccc34)CC2)nc1 [Example 54u]
26 | 100 to 1000 | 1000 to 10000 | 1000 to 10000 | – | COC(=O)c1cnc(N2CCN(c3nnc(Cc4ccccc4)c4ccccc34)CC2)nc1 [Example 140]
27 | – | 100 to 1000 | < 100 | < 100 | COC(=O)c1cnc(N2CCN(c3nnc(Cc4ccccc4)c4ccccc34)C[C@H]2C)cn1 [Example 145, (R)-4-(4-Benzyl-phthalazin-1-yl)-2-methyl-3,4,5,6-tetrahydro-2H-[1,2′]bipyrazinyl-5′-carboxylic acid methyl ester]
28 | < 100 | 100 to 1000 | < 100 | – | CC(=O)c1cnc(N2CCN(c3nnc(Cc4ccccc4)c4ccccc34)CC2)cn1 [Example 153]
29 | 100 to 1000 | 1000 to 10000 | 100 to 1000 | – | OCc1ccc(N2CCN(c3nnc(Cc4ccccc4)c4ccccc34)CC2)nc1 [Example 158]
30 | < 100 | 100 to 1000 | < 100 | – | CN(C)C(=O)c1ccc(N2CCN(c3nnc(Cc4ccc(F)cc4F)c4ccccc34)CC2)nc1 [Example 202]
31 | < 100 | 100 to 1000 | 100 to 1000 | – | CS(=O)(=O)NCc1ccc(N2CCN(c3nnc(Cc4ccccc4)c4ccccc34)CC2)nc1 [Example 205]
32 | 100 to 1000 | 100 to 1000 | < 100 | – | CNC(=O)NCc1ccc(N2CCN(c3nnc(Cc4ccccc4)c4ccccc34)CC2)nc1 [Example 206]
33 | 100 to 1000 | 100 to 1000 | 100 to 1000 | – | CC(=O)Nc1ccc(N2CCN(c3nnc(Cc4ccccc4)c4ccccc34)CC2)nc1 [Example 236]
34 | 100 to 1000 | 100 to 1000 | 100 to 1000 | – | CC(=O)Nc1cnc(N2CCN(c3nnc(Cc4ccccc4)c4ccccc34)CC2)nc1 [Example 237, N-{2-[4-(4-Benzyl-phthalazin-1-yl)-piperazin-1-yl]-pyrimidin-5-yl}-acetamide]
